Patent US9834550B2, “Pyridopyrimidinone compounds for modulating the catalytic activity of histone lysine demethylases (KDMs)” (Dong-A Socio Holdings Co., Ltd., priority 2014, dated 2017)

Each compound was assayed against T1, Recombinant human JARID1B/KDM5B (Homo sapiens, UniProt Q9UGL1) (assay: LANCE Ultra TR-FRET demethylase assay with FLAG-tagged JARID1B). Details: 100 nM compound; 500 nM biotinylated H3K4me3 peptide substrate.
T1 construct: purchased Active Motif 31432; host or cells: Sf9 insect cells
T1 sequence (Q9UGL1 whole entry): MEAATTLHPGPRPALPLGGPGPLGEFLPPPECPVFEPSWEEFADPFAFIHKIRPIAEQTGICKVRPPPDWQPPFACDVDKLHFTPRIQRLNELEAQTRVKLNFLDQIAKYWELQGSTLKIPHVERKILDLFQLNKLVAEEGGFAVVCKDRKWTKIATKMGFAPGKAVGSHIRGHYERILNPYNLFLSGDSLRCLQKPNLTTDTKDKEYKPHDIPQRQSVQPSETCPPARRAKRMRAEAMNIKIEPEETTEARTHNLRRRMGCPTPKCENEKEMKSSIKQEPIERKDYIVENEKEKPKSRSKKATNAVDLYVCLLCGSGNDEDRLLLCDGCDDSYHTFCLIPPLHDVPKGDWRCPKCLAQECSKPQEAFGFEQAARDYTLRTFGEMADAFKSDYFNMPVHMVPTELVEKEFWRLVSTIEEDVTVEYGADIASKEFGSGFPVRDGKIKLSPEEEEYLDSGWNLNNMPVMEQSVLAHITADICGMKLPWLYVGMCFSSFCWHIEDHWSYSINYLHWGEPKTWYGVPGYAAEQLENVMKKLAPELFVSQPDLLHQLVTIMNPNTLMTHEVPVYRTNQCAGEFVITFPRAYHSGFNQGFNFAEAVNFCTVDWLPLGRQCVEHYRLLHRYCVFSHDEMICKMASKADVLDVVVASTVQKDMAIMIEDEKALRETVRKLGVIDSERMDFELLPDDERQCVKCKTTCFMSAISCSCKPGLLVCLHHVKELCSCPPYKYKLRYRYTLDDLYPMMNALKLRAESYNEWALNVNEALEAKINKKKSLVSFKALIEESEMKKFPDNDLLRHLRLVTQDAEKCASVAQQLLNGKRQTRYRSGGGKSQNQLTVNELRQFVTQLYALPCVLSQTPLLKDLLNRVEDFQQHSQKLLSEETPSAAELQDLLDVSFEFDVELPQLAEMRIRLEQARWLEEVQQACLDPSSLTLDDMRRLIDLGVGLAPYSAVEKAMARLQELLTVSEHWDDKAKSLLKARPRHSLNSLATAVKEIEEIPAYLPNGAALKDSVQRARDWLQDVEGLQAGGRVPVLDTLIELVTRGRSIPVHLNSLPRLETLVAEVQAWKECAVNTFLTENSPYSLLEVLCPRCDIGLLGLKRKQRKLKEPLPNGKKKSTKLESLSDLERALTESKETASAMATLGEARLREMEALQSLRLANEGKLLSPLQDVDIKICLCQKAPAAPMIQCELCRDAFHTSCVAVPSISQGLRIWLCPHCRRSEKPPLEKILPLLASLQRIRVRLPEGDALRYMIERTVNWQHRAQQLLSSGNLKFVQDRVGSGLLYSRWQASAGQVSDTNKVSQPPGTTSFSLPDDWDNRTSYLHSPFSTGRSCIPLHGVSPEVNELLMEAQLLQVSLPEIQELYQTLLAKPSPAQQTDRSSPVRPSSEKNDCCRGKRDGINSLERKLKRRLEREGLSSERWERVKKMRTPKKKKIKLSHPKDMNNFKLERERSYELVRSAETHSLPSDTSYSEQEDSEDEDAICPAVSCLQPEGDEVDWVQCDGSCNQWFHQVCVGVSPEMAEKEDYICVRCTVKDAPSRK
Format: biochemical
Outline: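 Sf9-expressed N-FLAG full-length JARID1B (10–30 nM) preincubated 5 min with compound at 20, 1 or 0.1 uM (1% DMSO), then 500 nM biotin-H3K4me3 peptide, 500 uM 2-OG, 25 uM Fe(II), 2 mM ascorbate added; 30 min at room temperature in Hepes pH 7.5. H3K4me2/1 product read by TR-FRET 665/590 ratio.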

Question: Which inhibition at 0.1 µM does the source give for `O=c1[nH]c(COc2ccc(F)c(Cl)c2)nc2c(CNCCc3cccs3)nccc12` [Example 176, 2-((3-chloro-4-fluorophenoxy)methyl)-8-(((2-(thiophen-2-yl)ethyl)amino)methyl)pyrido[3,4-d]pyrimidin-4(3H)-one] here?
Answer: 20 to 50%

Question: With `O=c1[nH]c(COc2ccc(Cl)c(F)c2)nc2c(CNCC3CCNCC3)nccc12` [Example 127, 2-((4-chloro-3-fluorophenoxy)methyl)-8-(((piperidin-4-ylmethyl)amino)methyl)pyrido[3,4-d]pyrimidin-4(3H)-one] as the compound, how does the inhibition at 0.1 µM read?
Answer: 20 to 50%

Question: For `C[C@@H](Oc1ccc(F)c(Cl)c1)c1nc2c(CNCC3CCNCC3)nccc2c(=O)[nH]1` [Example 217, (R)-2-(1-(3-chloro-4-fluorophenoxy)ethyl)-8-(((piperidin-4-ylmethyl)amino)methyl)pyrido[3,4-d]pyrimidin-4(3H)-one], which inhibition at 0.1 µM is on record?
Answer: < 20%

Question: How did the inhibition at 0.1 µM turn out when `CC(C)N1CCC(CNCc2nccc3c(=O)[nH]c(COc4ccc(F)c(Cl)c4)nc23)CC1` [Example 168, 2-((3-chloro-4-fluorophenoxy)methyl)-8-((((1-isopropylpiperidin-4-yl)methyl)amino)methyl)pyrido[3,4-d]pyrimidin-4(3H)-one] was run?
Answer: > 50%

Question: Which inhibition at 0.1 µM does the source give for `O=C(CNCc1nccc2c(=O)[nH]c(COc3ccc(F)c(Cl)c3)nc12)N[C@H]1CCCNC1` [Example 231, (S)-2-(((2-((3-chloro-4-fluorophenoxy)methyl)-4-oxo-3,4-dihydropyrido[3,4-d]pyrimidin-8-yl)methyl)amino)-N-(piperidin-3-yl)acetamide] here?
Answer: > 50%

Question: For `CCN(CC)C1CCN(C(=O)CNCc2nccc3c(=O)[nH]c(COc4ccc(F)c(Cl)c4)nc23)C1` (stereo not drawn) [Example 236, 2-((3-chloro-4-fluorophenoxy)methyl)-8-(((2-(3-(diethylamino)pyrrolidin-1-yl)-2-oxoethyl)amino)methyl)pyrido[3,4-d]pyrimidin-4(3H)-one], which inhibition at 0.1 µM is on record?
Answer: > 50%

Question: Which inhibition at 0.1 µM does the source give for `O=c1[nH]cnc2c(CNCC3CCNCC3)nccc12` [Example 93, 8-(((piperidin-4-ylmethyl)amino)methyl)pyrido[3,4-d]pyrimidin-4(3H)-one] here?
Answer: 20 to 50%

Question: Which inhibition at 0.1 µM does the source give for `CN1CCC(CNCc2nccc3c(=O)[nH]cnc23)C1` (stereo not drawn) [Example 92, 8-((((1-methylpyrrolidin-3-yl)methyl)amino)methyl)pyrido[3,4-d]pyrimidin-4(3H)-one] here?
Answer: 20 to 50%

Question: For `O=c1[nH]c(C2CCCO2)nc2c(CNCC3CCNCC3)nccc12` (stereo not drawn) [Example 193, 8-(((piperidin-4-ylmethyl)amino)methyl)-2-(tetrahydrofuran-2-yl)pyrido[3,4-d]pyrimidin-4(3H)-one], which inhibition at 0.1 µM is on record?
Answer: < 20%

Question: Which inhibition at 0.1 µM does the source give for `O=c1[nH]c(COCc2cccc(Cl)c2)nc2c(CNC[C@H]3CCNC3)nccc12` [Example 208, (S)-2-(((3-chlorobenzyl)oxy)methyl)-8-(((pyrrolidin-3-ylmethyl)amino)methyl)pyrido[3,4-d]pyrimidin-4(3H)-one] here?
Answer: > 50%

Question: For `O=c1[nH]c(COc2cccc(Cl)c2)nc2c(CNCC3CCN(Cc4ccccc4)CC3)nccc12` [Example 106, 8-((((1-benzylpiperidin-4-yl)methyl)amino)methyl)-2-((3-chlorophenoxy)methyl)pyrido[3,4-d]pyrimidin-4(3H)-one], which inhibition at 0.1 µM is on record?
Answer: > 50%

Question: For `O=c1[nH]c(COc2cc(Cl)ccc2Cl)nc2c(CNCC3CCNCC3)nccc12` [Example 115, 2-((2,5-dichlorophenoxy)methyl)-8-(((piperidin-4-ylmethyl)amino)methyl)pyrido[3,4-d]pyrimidin-4(3H)-one], which inhibition at 0.1 µM is on record?
Answer: 20 to 50%

Question: For `CN1CCC(CNCc2nccc3c(=O)[nH]c(COc4ccc(F)c(Cl)c4)nc23)CC1` [Example 160, 2-((3-chloro-4-fluorophenoxy)methyl)-8-((((1-methylpiperidin-4-yl)methyl)amino)methyl)pyrido[3,4-d]pyrimidin-4(3H)-one], which inhibition at 0.1 µM is on record?
Answer: > 50%

Question: `C[C@@H](Oc1ccc(Cc2ccccc2)cc1)c1nc2c(CNCC3CCN(C)CC3)nccc2c(=O)[nH]1` [Example 216, (R)-2-(1-(4-benzylphenoxy)ethyl)-8-((((1-methylpiperidin-4-yl)methyl)amino)methyl)pyrido[3,4-d]pyrimidin-4(3H)-one] was tested. Which inhibition at 0.1 µM did it give?
Answer: > 50%

Question: With `O=c1[nH]c(COc2ccc(Cc3ccccc3)cc2)nc2c(CNCC3CCNCC3)nccc12` [Example 121, 2-((4-benzylphenoxy)methyl)-8-(((piperidin-4-ylmethyl)amino)methyl)pyrido[3,4-d]pyrimidin-4(3H)-one] as the compound, how does the inhibition at 0.1 µM read?
Answer: > 50%

Question: For `CC(Oc1ccc(Cc2ccccc2)cc1)c1nc2c(CNC[C@H]3CCNC3)nccc2c(=O)[nH]1` (stereo partly drawn) [Example 213, 2-(1-(4-benzylphenoxy)ethyl)-8-(((((S)-pyrrolidin-3-yl)methyl)amino)methyl)pyrido[3,4-d]pyrimidin-4(3H)-one], which inhibition at 0.1 µM is on record?
Answer: 20 to 50%

Question: For `O=c1[nH]c(COc2ccc(F)c(Cl)c2)nc2c(CNCc3cccs3)nccc12` [Example 181, 2-((3-chloro-4-fluorophenoxy)methyl)-8-(((thiophen-2-ylmethyl)amino)methyl)pyrido[3,4-d]pyrimidin-4(3H)-one], which inhibition at 0.1 µM is on record?
Answer: 20 to 50%

Question: How did the inhibition at 0.1 µM turn out when `O=c1[nH]c(COc2ccc(Cl)cc2Cl)nc2c(CNCC3CCNCC3)nccc12` [Example 114, 2-((2,4-dichlorophenoxy)methyl)-8-(((piperidin-4-ylmethyl)amino)methyl)pyrido[3,4-d]pyrimidin-4(3H)-one] was run?
Answer: 20 to 50%

Question: With `N#Cc1ccccc1OCc1nc2c(CNCC3CCNCC3)nccc2c(=O)[nH]1` [Example 128, 2-((4-oxo-8-(((piperidin-4-ylmethyl)amino)methyl)-3,4-dihydropyrido[3,4-d]pyrimidin-2-yl)methoxy)benzonitrile] as the compound, how does the inhibition at 0.1 µM read?
Answer: 20 to 50%

Question: How did the inhibition at 0.1 µM turn out when `O=c1[nH]c(C2CCc3ccccc3O2)nc2c(CNCC3CCNCC3)nccc12` (stereo not drawn) [Example 199, 2-(chroman-2-yl)-8-(((piperidin-4-ylmethyl)amino)methyl)pyrido[3,4-d]pyrimidin-4(3H)-one] was run?
Answer: < 20%

Question: With `O=c1[nH]c(COc2ccc(F)c(Cl)c2)nc2c(CNCC3CCNCC3)nccc12` [Example 126, 2-((3-chloro-4-fluorophenoxy)methyl)-8-(((piperidin-4-ylmethyl)amino)methyl)pyrido[3,4-d]pyrimidin-4(3H)-one] as the compound, how does the inhibition at 0.1 µM read?
Answer: > 50%

Question: With `Cc1cc(OCc2nc3c(CNCC4CCNCC4)nccc3c(=O)[nH]2)ccc1Cl` [Example 134, 2-((4-chloro-3-methylphenoxy)methyl)-8-(((piperidin-4-ylmethyl)amino)methyl)pyrido[3,4-d]pyrimidin-4(3H)-one] as the compound, how does the inhibition at 0.1 µM read?
Answer: 20 to 50%

Question: `O=c1[nH]c(COc2ccc(Cl)cc2)nc2c(CNCC3CCN(Cc4ccccc4)CC3)nccc12` [Example 107, 8-((((1-benzylpiperidin-4-yl)methyl)amino)methyl)-2-((4-chlorophenoxy)methyl)pyrido[3,4-d]pyrimidin-4(3H)-one] was tested. Which inhibition at 0.1 µM did it give?
Answer: > 50%

Question: Which inhibition at 0.1 µM does the source give for `CN1CCOC(CNCc2nccc3c(=O)[nH]c(COc4ccc(F)c(Cl)c4)nc23)C1` (stereo not drawn) [Example 178, 2-((3-chloro-4-fluorophenoxy)methyl)-8-((((4-methylmorpholin-2-yl)methyl)amino)methyl)pyrido[3,4-d]pyrimidin-4(3H)-one] here?
Answer: 20 to 50%

Question: `O=c1[nH]c(COc2ccc(Cc3ccccc3)cc2)nc2c(CNCCCCN3CCCC3)nccc12` [Example 143, 2-((4-benzylphenoxy)methyl)-8-(((4-(pyrrolidin-1-yl)butyl)amino)methyl)pyrido[3,4-d]pyrimidin-4(3H)-one] was tested. Which inhibition at 0.1 µM did it give?
Answer: 20 to 50%

Question: How did the inhibition at 0.1 µM turn out when `CCN1CCC[C@H]1CNCc1nccc2c(=O)[nH]c(COc3ccc(Cc4ccccc4)cc3)nc12` [Example 146, (S)-2-((4-benzylphenoxy)methyl)-8-((((1-ethylpyrrolidin-2-yl)methyl)amino)methyl)pyrido[3,4-d]pyrimidin-4(3H)-one] was run?
Answer: 20 to 50%

Question: `O=c1[nH]c(COc2ccc(F)cc2F)nc2c(CNCC3CCNCC3)nccc12` [Example 124, 2-((2,4-difluorophenoxy)methyl)-8-(((piperidin-4-ylmethyl)amino)methyl)pyrido[3,4-d]pyrimidin-4(3H)-one] was tested. Which inhibition at 0.1 µM did it give?
Answer: 20 to 50%

Question: How did the inhibition at 0.1 µM turn out when `O=c1[nH]c(COc2ccc(F)c(Cl)c2)nc2c(CNCC3CCOCC3)nccc12` [Example 161, 2-((3-chloro-4-fluorophenoxy)methyl)-8-((((tetrahydro-2H-pyran-4-yl)methyl)amino)methyl)pyrido[3,4-d]pyrimidin-4(3H)-one] was run?
Answer: < 20%

Question: Which inhibition at 0.1 µM does the source give for `N[C@H]1CC[C@H](NCc2nccc3c(=O)[nH]c(COc4ccc(Cc5ccccc5)cc4)nc23)CC1` [Example 155, 8-((((1r,4r)-4-aminocyclohexyl)amino)methyl)-2-((4-benzylphenoxy)methyl)pyrido[3,4-d]pyrimidin-4(3H)-one] here?
Answer: 20 to 50%

Question: For `Cc1cc(CNCc2nccc3c(=O)[nH]c(COc4ccc(F)c(Cl)c4)nc23)on1` [Example 177, 2-((3-chloro-4-fluorophenoxy)methyl)-8-((((3-methylisoxazol-5-yl)methyl)amino)methyl)pyrido[3,4-d]pyrimidin-4(3H)-one], which inhibition at 0.1 µM is on record?
Answer: 20 to 50%

Question: For `CN1CCC(CNCc2nccc3c(=O)[nH]c(COCc4ccccc4)nc23)C1` (stereo not drawn) [Example 205, 2-((benzyloxy)methyl)-8-((((1-methylpyrrolidin-3-yl)methyl)amino)methyl)pyrido[3,4-d]pyrimidin-4(3H)-one], which inhibition at 0.1 µM is on record?
Answer: 20 to 50%

Question: With `O=c1[nH]c(COc2cccc(Cl)c2Cl)nc2c(CNCC3CCNCC3)nccc12` [Example 113, 2-((2,3-dichlorophenoxy)methyl)-8-(((piperidin-4-ylmethyl)amino)methyl)pyrido[3,4-d]pyrimidin-4(3H)-one] as the compound, how does the inhibition at 0.1 µM read?
Answer: 20 to 50%

Question: `O=c1[nH]c(COc2ccc(F)c(Cl)c2)nc2c(CNCC3CCOC3)nccc12` (stereo not drawn) [Example 163, 2-((3-chloro-4-fluorophenoxy)methyl)-8-((((tetrahydrofuran-3-yl)methyl)amino)methyl)pyrido[3,4-d]pyrimidin-4(3H)-one] was tested. Which inhibition at 0.1 µM did it give?
Answer: < 20%
